In patent publication US20260226493A1, “HERBICIDE RESISTANT PLANTS” (SYNGENTA CROP PROTECTION AG, priority 2023, published 2026):

What was measured:
Test in all cases: BIO3-BIO1 mutant enzyme activity in the presence of herbicide, percentage inhibition (fluorometric DAPA assay)
Format in all cases: biochemical
Settings in all cases: read-out: percentage inhibition
[1] = molecular target: T1, Arabidopsis thaliana BIO3-BIO1 (BioDA) mutants (Arabidopsis thaliana, UniProt B0F481, A609C)
T1 construct: with the predicted N-terminal mitochondrial transit peptide removed; 6xHis-tag (N); thrombin cleavage site (N); made in house; host or cells: E. coli BL21 (DE3) bioA
Procedure, shortened: (§1)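 His-tagged Arabidopsis BIO3-BIO1 mutants, expressed in E. coli and purified by IMAC and SEC, were preincubated at 50 nM with herbicide for 10 min at 20 °C in EPPS pH 8.6 with pyridoxal phosphate. Reaction with 100 μM spermidine and 20 μM KAPA ran 75 min at 20 °C; DAPA was derivatised with o-phthalaldehyde and read at ex 410/em 470 nm. […].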

[2] = molecular target: T2, Arabidopsis thaliana BIO3-BIO1 (BioDA) mutants (Arabidopsis thaliana, UniProt B0F481, A609T)
T2 construct: with the predicted N-terminal mitochondrial transit peptide removed; 6xHis-tag (N); thrombin cleavage site (N); made in house; host or cells: E. coli BL21 (DE3) bioA
Procedure, shortened: as §1

[3] = molecular target: T3, Arabidopsis thaliana BIO3-BIO1 (BioDA) mutants (Arabidopsis thaliana, UniProt B0F481, A609V)
T3 construct: with the predicted N-terminal mitochondrial transit peptide removed; 6xHis-tag (N); thrombin cleavage site (N); made in house; host or cells: E. coli BL21 (DE3) bioA
Procedure, shortened: as §1

[4] = molecular target: T4, Arabidopsis thaliana BIO3-BIO1 (BioDA) mutants (Arabidopsis thaliana, UniProt B0F481, F348C)
T4 construct: with the predicted N-terminal mitochondrial transit peptide removed; 6xHis-tag (N); thrombin cleavage site (N); made in house; host or cells: E. coli BL21 (DE3) bioA
Procedure, shortened: as §1

[5] = molecular target: T5, Arabidopsis thaliana BIO3-BIO1 (BioDA) mutants (Arabidopsis thaliana, UniProt B0F481, F348I)
T5 construct: with the predicted N-terminal mitochondrial transit peptide removed; 6xHis-tag (N); thrombin cleavage site (N); made in house; host or cells: E. coli BL21 (DE3) bioA
Procedure, shortened: as §1

[6] = molecular target: T6, Arabidopsis thaliana BIO3-BIO1 (BioDA) mutants (Arabidopsis thaliana, UniProt B0F481, F348Q)
T6 construct: with the predicted N-terminal mitochondrial transit peptide removed; 6xHis-tag (N); thrombin cleavage site (N); made in house; host or cells: E. coli BL21 (DE3) bioA
Procedure, shortened: as §1

[7] = molecular target: T7, Arabidopsis thaliana BIO3-BIO1 (BioDA) mutants (Arabidopsis thaliana, UniProt B0F481, G610H)
T7 construct: with the predicted N-terminal mitochondrial transit peptide removed; 6xHis-tag (N); thrombin cleavage site (N); made in house; host or cells: E. coli BL21 (DE3) bioA
Procedure, shortened: as §1

[8] = molecular target: T8, Arabidopsis thaliana BIO3-BIO1 (BioDA) mutants (Arabidopsis thaliana, UniProt B0F481, L786S)
T8 construct: with the predicted N-terminal mitochondrial transit peptide removed; 6xHis-tag (N); thrombin cleavage site (N); made in house; host or cells: E. coli BL21 (DE3) bioA
Procedure, shortened: as §1

[9] = molecular target: T9, Arabidopsis thaliana BIO3-BIO1 (BioDA) mutants (Arabidopsis thaliana, UniProt B0F481, P510A)
T9 construct: with the predicted N-terminal mitochondrial transit peptide removed; 6xHis-tag (N); thrombin cleavage site (N); made in house; host or cells: E. coli BL21 (DE3) bioA
Procedure, shortened: as §1

[10] = molecular target: T10, Arabidopsis thaliana BIO3-BIO1 (BioDA) mutants (Arabidopsis thaliana, UniProt B0F481, R797Q)
T10 construct: with the predicted N-terminal mitochondrial transit peptide removed; 6xHis-tag (N); thrombin cleavage site (N); made in house; host or cells: E. coli BL21 (DE3) bioA
Procedure, shortened: as §1

[11] = molecular target: T11, Arabidopsis thaliana BIO3-BIO1 (BioDA) mutants (Arabidopsis thaliana, UniProt B0F481, S509C)
T11 construct: with the predicted N-terminal mitochondrial transit peptide removed; 6xHis-tag (N); thrombin cleavage site (N); made in house; host or cells: E. coli BL21 (DE3) bioA
Procedure, shortened: as §1

[12] = molecular target: T12, Arabidopsis thaliana BIO3-BIO1 (BioDA) mutants (Arabidopsis thaliana, UniProt B0F481, S704H)
T12 construct: with the predicted N-terminal mitochondrial transit peptide removed; 6xHis-tag (N); thrombin cleavage site (N); made in house; host or cells: E. coli BL21 (DE3) bioA
Procedure, shortened: as §1

T8 sequence (B0F481 23-833 L786S): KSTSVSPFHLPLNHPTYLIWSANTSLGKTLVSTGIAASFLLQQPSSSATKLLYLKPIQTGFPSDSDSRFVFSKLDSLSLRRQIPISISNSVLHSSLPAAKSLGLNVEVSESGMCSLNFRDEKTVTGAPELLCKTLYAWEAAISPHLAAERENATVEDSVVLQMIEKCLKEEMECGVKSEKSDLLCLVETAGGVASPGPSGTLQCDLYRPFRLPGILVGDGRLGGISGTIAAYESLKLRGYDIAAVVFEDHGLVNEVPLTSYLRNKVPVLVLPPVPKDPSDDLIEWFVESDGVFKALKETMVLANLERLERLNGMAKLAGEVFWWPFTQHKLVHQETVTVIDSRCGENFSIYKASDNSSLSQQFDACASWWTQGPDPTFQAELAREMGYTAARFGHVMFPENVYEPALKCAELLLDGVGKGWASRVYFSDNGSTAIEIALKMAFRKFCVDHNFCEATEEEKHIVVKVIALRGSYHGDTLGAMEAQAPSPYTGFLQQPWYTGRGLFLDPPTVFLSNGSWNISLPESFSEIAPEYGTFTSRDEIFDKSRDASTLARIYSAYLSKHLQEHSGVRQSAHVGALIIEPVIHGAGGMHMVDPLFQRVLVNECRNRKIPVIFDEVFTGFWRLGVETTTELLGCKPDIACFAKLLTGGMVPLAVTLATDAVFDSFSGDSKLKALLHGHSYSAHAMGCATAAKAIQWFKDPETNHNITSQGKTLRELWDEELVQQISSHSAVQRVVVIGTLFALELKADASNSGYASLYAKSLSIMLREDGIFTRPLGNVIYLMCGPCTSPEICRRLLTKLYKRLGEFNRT
T10 sequence (B0F481 23-833 R797Q): as the sequence (B0F481 23-833 L786S) above, with S764L, R775Q counted along it
T3 sequence (B0F481 23-833 A609V): as the sequence (B0F481 23-833 L786S) above, with A587V, S764L counted along it
T11 sequence (B0F481 23-833 S509C): as the sequence (B0F481 23-833 L786S) above, with S487C, S764L counted along it
T4 sequence (B0F481 23-833 F348C): as the sequence (B0F481 23-833 L786S) above, with F326C, S764L counted along it
T12 sequence (B0F481 23-833 S704H): as the sequence (B0F481 23-833 L786S) above, with S682H, S764L counted along it
T7 sequence (B0F481 23-833 G610H): as the sequence (B0F481 23-833 L786S) above, with G588H, S764L counted along it
T6 sequence (B0F481 23-833 F348Q): as the sequence (B0F481 23-833 L786S) above, with F326Q, S764L counted along it
T1 sequence (B0F481 23-833 A609C): as the sequence (B0F481 23-833 L786S) above, with A587C, S764L counted along it
T2 sequence (B0F481 23-833 A609T): as the sequence (B0F481 23-833 L786S) above, with A587T, S764L counted along it
T9 sequence (B0F481 23-833 P510A): as the sequence (B0F481 23-833 L786S) above, with P488A, S764L counted along it
T5 sequence (B0F481 23-833 F348I): as the sequence (B0F481 23-833 L786S) above, with F326I, S764L counted along it

SMILES: CCn1c(Cn2ccc(C(F)(F)F)n2)cc(=O)c(C(=O)O)c1-c1ccc(Cl)c(Cl)c1 [Compound L, 2-(3,4-dichlorophenyl)-1-ethyl-4-oxo-6-[[3-(trifluoromethyl)pyrazol-1-yl]methyl]pyridine-3-carboxylic acid]
- inhibition at 0.01 µM [1]: 4%
- inhibition at 0.075 µM [1]: 22%
- inhibition at 0.5 µM [1]: 30%
- inhibition at 0.01 µM [2]: 10%
- inhibition at 0.075 µM [2]: 34%
- inhibition at 0.5 µM [2]: 12%
- inhibition at 0.01 µM [3]: 0%
- inhibition at 0.075 µM [3]: 0%
- inhibition at 0.5 µM [3]: 0%
- inhibition at 0.01 µM [4]: 0%
- inhibition at 0.075 µM [4]: 0%
- inhibition at 0.5 µM [4]: 29%
- inhibition at 0.01 µM [5]: 1%
- inhibition at 0.075 µM [5]: 3%
- inhibition at 0.5 µM [5]: 14%
- inhibition at 0.01 µM [6]: 0%
- inhibition at 0.075 µM [6]: 0%
- inhibition at 0.5 µM [6]: 3%
- inhibition at 0.01 µM [7]: 7%
- inhibition at 0.075 µM [7]: 18%
- inhibition at 0.5 µM [7]: 65%
- inhibition at 0.01 µM [8]: 11%
- inhibition at 0.075 µM [8]: 31%
- inhibition at 0.5 µM [8]: 93%
- inhibition at 0.01 µM [9]: 0%
- inhibition at 0.075 µM [9]: 0%
- inhibition at 0.5 µM [9]: 63%

SMILES: CCOC(=O)c1nn(-c2ccc3c(c2)OC(F)(F)C(F)(F)O3)c2cccc(C(C)=O)c2c1=O [Compound A, ethyl 5-acetyl-4-oxo-1-(2,2,3,3-tetrafluoro-1,4-benzodioxin-6-yl)cinnoline-3-carboxylate]
- inhibition at 1 µM [1]: 18%
- inhibition at 1 µM [2]: 0%
- inhibition at 1 µM [3]: 5%
- inhibition at 1 µM [4]: 0%
- inhibition at 1 µM [5]: 7%
- inhibition at 1 µM [6]: 7%
- inhibition at 1 µM [7]: 10%
- inhibition at 1 µM [8]: 80%
- inhibition at 1 µM [9]: 4%
- inhibition at 1 µM [10]: 35%
- inhibition at 1 µM [11]: 0%
- inhibition at 1 µM [12]: 0%

SMILES: CCn1c(-c2ccc(Cl)c(Cl)c2)c(C(=O)O)c(=O)c2cc(F)ccc21 [Compound M, 2-(3,4-dichlorophenyl)-1-ethyl-6-fluoro-4-oxo-quinoline-3-carboxylic acid]
- inhibition at 0.2 µM [1]: 10%
- inhibition at 1 µM [1]: 47%
- inhibition at 5 µM [1]: 78%
- inhibition at 0.2 µM [2]: 8%
- inhibition at 1 µM [2]: 39%
- inhibition at 5 µM [2]: 67%
- inhibition at 0.2 µM [3]: 22%
- inhibition at 1 µM [3]: 44%
- inhibition at 5 µM [3]: 75%
- inhibition at 0.2 µM [4]: 14%
- inhibition at 1 µM [4]: 3%
- inhibition at 5 µM [4]: 0%
- inhibition at 0.2 µM [5]: 0%
- inhibition at 1 µM [5]: 6%
- inhibition at 5 µM [5]: 25%
- inhibition at 0.2 µM [6]: 0%
- inhibition at 1 µM [6]: 0%
- inhibition at 5 µM [6]: 16%
- inhibition at 0.2 µM [7]: 26%
- inhibition at 1 µM [7]: 59%
- inhibition at 5 µM [7]: 84%
- inhibition at 0.2 µM [8]: 33%
- inhibition at 1 µM [8]: 81%
- inhibition at 5 µM [8]: 97%
- inhibition at 0.2 µM [9]: 0%
- inhibition at 1 µM [9]: 14%
- inhibition at 5 µM [9]: 51%
- inhibition at 0.2 µM [10]: 0%
- inhibition at 1 µM [10]: 5%
- inhibition at 5 µM [10]: 30%
- inhibition at 0.2 µM [11]: 21%
- inhibition at 1 µM [11]: 53%
- inhibition at 5 µM [11]: 78%
- inhibition at 0.2 µM [12]: 0%
- inhibition at 1 µM [12]: 0%
- inhibition at 5 µM [12]: 0%

SMILES: CCn1c(C)c(-c2ccc(F)cc2F)c(=O)c(C(=O)O)c1-c1ccc(Cl)c(Cl)c1 [Compound C, 2-(3,4-dichlorophenyl)-5-(2,4-difluorophenyl)-1-ethyl-6-methyl-4-oxo-pyridine-3-carboxylic acid]
- inhibition at 0.2 µM [1]: 29%
- inhibition at 1 µM [1]: 73%
- inhibition at 5 µM [1]: 94%
- inhibition at 0.2 µM [2]: 12%
- inhibition at 1 µM [2]: 37%
- inhibition at 5 µM [2]: 64%
- inhibition at 0.2 µM [3]: 0%
- inhibition at 1 µM [3]: 11%
- inhibition at 5 µM [3]: 58%
- inhibition at 0.2 µM [4]: 0%
- inhibition at 1 µM [4]: 0%
- inhibition at 5 µM [4]: 0%
- inhibition at 0.2 µM [5]: 6%
- inhibition at 1 µM [5]: 11%
- inhibition at 5 µM [5]: 49%
- inhibition at 0.2 µM [6]: 3%
- inhibition at 1 µM [6]: 0%
- inhibition at 5 µM [6]: 25%
- inhibition at 0.2 µM [7]: 19%
- inhibition at 1 µM [7]: 58%
- inhibition at 5 µM [7]: 82%
- inhibition at 0.2 µM [8]: 26%
- inhibition at 1 µM [8]: 84%
- inhibition at 5 µM [8]: 98%
- inhibition at 0.2 µM [9]: 0%
- inhibition at 1 µM [9]: 28%
- inhibition at 5 µM [9]: 70%
- inhibition at 0.2 µM [10]: 7%
- inhibition at 1 µM [10]: 32%
- inhibition at 5 µM [10]: 52%
- inhibition at 0.2 µM [11]: 30%
- inhibition at 1 µM [11]: 65%
- inhibition at 5 µM [11]: 88%
- inhibition at 0.2 µM [12]: 0%
- inhibition at 1 µM [12]: 0%
- inhibition at 5 µM [12]: 0%
